Where two headings read alike, the source gives them in different places.
Assays:
[1] = tested on: P. falciparum male gametocytes; experiment: P. falciparum Dual Gamete Formation Assay (PfDGFA), male readout (exflagellation); assay type: cell-based, Plasmodium falciparum NF54; conditions: for Selectivity Ratio M: HepG2 Tox50 versus male IC50; for IC50: PfDGFA, 24 h incubation with gametocytes before induction, exflagellation readout, read-out: Male IC50; for HitlevelM: number of replicates with >50% inhibition in the male readout
How it was run: (§1)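 Male and female gamete formation were quantified by microscopy image analysis following 24 h incubation of mature NF54 gametocytes with compound and activation at 28°C with xanthurenic acid.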

[2] = tested on: P. falciparum female gametocytes; experiment: P. falciparum Dual Gamete Formation Assay (PfDGFA), female readout (Pfs25-positive female gametes); assay type: cell-based, Plasmodium falciparum NF54; conditions: for Selectivity ratio F: HepG2 Tox50 versus female IC50; for IC50: PfDGFA, 24 h incubation with gametocytes before induction, female gamete readout, read-out: Female IC50; for HitlevelF: number of replicates with >50% inhibition in the female readout
How it was run: as §1

HepG2 cells = experiment: HepG2 cytotoxicity counter-screen; conditions: cytotoxic activity against HepG2 cells
[3] = 2µM, 24h preincubation with gametocytes, average of replicates
[4] = 2µM, 24h preincubation with gametocytes, replicate R1
[5] = 2µM, 24h preincubation with gametocytes, replicate R3
[6] = 2µM, 24h preincubation with gametocytes, replicate R4
[7] = 2µM, 24h preincubation with gametocytes prior to induction of gametogenesis, average of replicates
[8] = 2µM, 24h preincubation with gametocytes prior to induction of gametogenesis, replicate R1
[9] = 2µM, 24h preincubation with gametocytes prior to induction of gametogenesis, replicate R3
[10] = 2µM, 24h preincubation with gametocytes prior to induction of gametogenesis, replicate R4
[11] = Plasmodium falciparum, 2µM, 24h preincubation with gametocytes, average of replicates, read-out: Average inhibition male (%)
[12] = Plasmodium falciparum, 2µM, 24h preincubation with gametocytes, replicate R1, read-out: % inhibition male (individual replicates) R1
[13] = Plasmodium falciparum, 2µM, 24h preincubation with gametocytes, replicate R2, read-out: % inhibition male (individual replicates) R2
[14] = Plasmodium falciparum, 2µM, 24h preincubation with gametocytes, replicate R3, read-out: % inhibition male (individual replicates) R3
[15] = Plasmodium falciparum, 2µM, 24h preincubation with gametocytes, replicate R4, read-out: % inhibition male (individual replicates) R4
[16] = Plasmodium falciparum, 2µM, 24h preincubation with gametocytes, average of replicates, read-out: Average inhibition female (%)
[17] = Plasmodium falciparum, 2µM, 24h preincubation with gametocytes, replicate R1, read-out: % inhibition female (individual replicates) R1
[18] = Plasmodium falciparum, 2µM, 24h preincubation with gametocytes, replicate R2, read-out: % inhibition female (individual replicates) R2
[19] = Plasmodium falciparum, 2µM, 24h preincubation with gametocytes, replicate R3, read-out: % inhibition female (individual replicates) R3
[20] = Plasmodium falciparum, 2µM, 24h preincubation with gametocytes, replicate R4, read-out: % inhibition female (individual replicates) R4
[21] = PfDGFA at 2µM, 24h preincubation with gametocytes, average of replicates
[22] = PfDGFA at 2µM, 24h preincubation with gametocytes, replicate R1
[23] = PfDGFA at 2µM, 24h preincubation with gametocytes, replicate R3
[24] = PfDGFA at 2µM, 24h preincubation with gametocytes, replicate R4

SMILES | IC50 [1] | IC50 [2] | IC50 ([1]; Plasmodium falciparum) | IC50 ([2]; Plasmodium falciparum) | Selectivity Ratio M [1] | Selectivity ratio F [2] | Tox50 (HepG2 cells) | inhibition at 2 µM [1, 11] | inhibition at 2 µM [1, 12] | inhibition at 2 µM [1, 13] | inhibition at 2 µM [1, 15] | inhibition at 2 µM [2, 16] | inhibition at 2 µM [2, 17] | inhibition at 2 µM [2, 18] | inhibition at 2 µM [2, 19] | inhibition at 2 µM [2, 20] | further results
Cl.Clc1ccc(OCCC2CCN(CCCCCCCN3CCC(CCOc4ccc(Cl)c(Cl)c4)CC3)CC2)cc1Cl [TCMDC-138967] | 1190 nM | 1740 nM |  |  | 2.82 | 1.93 | 3.36 µM |  |  |  |  |  |  |  |  |  | Average inhibition male (%) [1, 3]: 95.6%; % inhibition male (individual replicates) R1 [1, 4]: 93.1%; % inhibition male (individual replicates) R3 [1, 5]: 96.8%; % inhibition male (individual replicates) R4 [1, 6]: 99.1%; Average inhibition female (%) [2, 3]: 87.8%; % inhibition female (individual replicates) R1 [2, 4]: 88.3%; % inhibition female (individual replicates) R3 [2, 5]: 97.6%; % inhibition female (individual replicates) R4 [2, 6]: 78.8%
COc1ccc(NC(=O)c2ccc(OCCCCCCCOc3ccc(C(=O)Nc4ccc(OC)c(N5CCN(C)CC5)c4)cc3)cc2)cc1N1CCN(C)CC1.O=C(O)C(=O)O [TCMDC-139007] | 900 nM | 1330 nM |  |  | 4.37 | 2.96 | 3.94 µM |  |  |  |  |  |  |  |  |  | Average inhibition male (%) [1, 3]: 92.9%; % inhibition male (individual replicates) R1 [1, 4]: 92.7%; % inhibition male (individual replicates) R3 [1, 5]: 82.0%; % inhibition male (individual replicates) R4 [1, 6]: 95.6%; Average inhibition female (%) [2, 3]: 47.5%; % inhibition female (individual replicates) R1 [2, 4]: 33.2%; % inhibition female (individual replicates) R3 [2, 5]: 33.3%; % inhibition female (individual replicates) R4 [2, 6]: 62.1%
COc1ccc(NC(=O)c2cccc(Br)c2)cc1N1CCN(CCCCCCCN2CCN(c3cc(NC(=O)c4cccc(Br)c4)ccc3OC)CC2)CC1.Cl [TCMDC-139020] | 1980 nM | 1830 nM |  |  | 4 | 4.34 | 7.95 µM |  |  |  |  |  |  |  |  |  | Average inhibition male (%) [1, 7]: 30.8%; % inhibition male (individual replicates) R1 [1, 8]: 35.3%; % inhibition male (individual replicates) R3 [1, 9]: 36.0%; % inhibition male (individual replicates) R4 [1, 10]: 43.4%; HitlevelM ([1]; 2µM, 24h preincubation): 0; Average inhibition female (%) [2, 7]: 52.2%; % inhibition female (individual replicates) R1 [2, 8]: 51.4%; % inhibition female (individual replicates) R3 [2, 9]: 52.5%; % inhibition female (individual replicates) R4 [2, 10]: 56.9%; HitlevelF ([2]; 2µM, 24h preincubation): 3
COc1cccc(C23NC(=Nc4nc5ccccc5[nH]4)NC2(c2cccc(OC)c2)NC(=Nc2nc4ccccc4[nH]2)N3)c1 (stereo not shown) [TCMDC-139087] |  |  | 1850 nM | 1300 nM | 17.52 | 24.94 | 32.37 µM |  |  |  |  |  |  |  |  |  | inhibition at 2 µM ([1]; Plasmodium falciparum, PfDGFA at 2µM, 24h preincubation with gametocytes, average of replicates, read-out: Average inhibition male (%)): 78.4%; inhibition at 2 µM ([1]; Plasmodium falciparum, PfDGFA at 2µM, 24h preincubation with gametocytes, replicate R1, read-out: % inhibition male (individual replicates) R1): 83%; inhibition at 2 µM ([1]; Plasmodium falciparum, PfDGFA at 2µM, 24h preincubation with gametocytes, replicate R2, read-out: % inhibition male (individual replicates) R2): 72.6%; inhibition at 2 µM ([1]; Plasmodium falciparum, PfDGFA at 2µM, 24h preincubation with gametocytes, replicate R3, read-out: % inhibition male (individual replicates) R3): 79%; inhibition at 2 µM ([1]; Plasmodium falciparum, PfDGFA at 2µM, 24h preincubation with gametocytes, replicate R4, read-out: % inhibition male (individual replicates) R4): 78.9%; HitlevelM ([1]; 2µM): 4; inhibition at 2 µM ([2]; Plasmodium falciparum, PfDGFA at 2µM, 24h preincubation with gametocytes, average of replicates, read-out: Average inhibition female (%)): 28.9%; inhibition at 2 µM ([2]; Plasmodium falciparum, PfDGFA at 2µM, 24h preincubation with gametocytes, replicate R1, read-out: % inhibition female (individual replicates) R1): 18.4%; inhibition at 2 µM ([2]; Plasmodium falciparum, PfDGFA at 2µM, 24h preincubation with gametocytes, replicate R2, read-out: % inhibition female (individual replicates) R2): 40.4%; inhibition at 2 µM ([2]; Plasmodium falciparum, PfDGFA at 2µM, 24h preincubation with gametocytes, replicate R3, read-out: % inhibition female (individual replicates) R3): 9.2%; inhibition at 2 µM ([2]; Plasmodium falciparum, PfDGFA at 2µM, 24h preincubation with gametocytes, replicate R4, read-out: % inhibition female (individual replicates) R4): 47.7%; HitlevelF ([2]; 2µM): 0
COc1ccc2nc(N=C3NC4(c5ccccc5)NC(=Nc5nc6ccc(OC)cc6[nH]5)NC4(c4ccccc4)N3)[nH]c2c1.O=C(O)C(F)(F)F (stereo not shown) [TCMDC-139632] |  |  | 1160 nM | 5840 nM | 29.01 | 5.74 | 33.52 µM | 94.4% | 95.5% | 96.3% | 90.9% | 18.9% | 23.3% | 24.8% | 10.6% | 17.1% | inhibition at 2 µM [1, 14]: 95.1%
CC(Cc1ccc(OCCCCOc2ccccc2)cc1)NCCC1CCCN1C (stereo not shown) [TCMDC-140017] | 660 nM | 1370 nM |  |  | 2.45 | 1.19 | 1.62 µM |  |  |  |  |  |  |  |  |  | Average inhibition male (%) [1, 3]: 99.4%; % inhibition male (individual replicates) R1 [1, 4]: 96.0%; % inhibition male (individual replicates) R3 [1, 5]: 99.2%; % inhibition male (individual replicates) R4 [1, 6]: 102.2%; Average inhibition female (%) [2, 3]: 62.2%; % inhibition female (individual replicates) R1 [2, 4]: 37.3%; % inhibition female (individual replicates) R3 [2, 5]: 46.8%; % inhibition female (individual replicates) R4 [2, 6]: 81.6%

The next lines start with results.

IC50 [1] | IC50 [2] | IC50 ([1]; Plasmodium falciparum) | IC50 ([2]; Plasmodium falciparum) | SMILES | Selectivity Ratio M [1] | Selectivity ratio F [2] | Tox50 (HepG2 cells) | inhibition at 2 µM [1, 11] | inhibition at 2 µM [1, 12] | inhibition at 2 µM [1, 13] | inhibition at 2 µM [1, 15] | inhibition at 2 µM [2, 16] | inhibition at 2 µM [2, 17] | inhibition at 2 µM [2, 18] | inhibition at 2 µM [2, 19] | inhibition at 2 µM [2, 20] | further results
 |  | 950 nM | 1020 nM | c1ccc(-c2nc(Nc3nc4ccccc4[nH]3)[nH]c2-c2ccccc2)cc1 [TCMDC-139099] | 17.05 | 15.94 | 16.22 µM | 97.9% | 97.5% | 98.5% | 98.9% | 58.5% | 38.7% | 75.2% | 46.9% | 73.1% | inhibition at 2 µM [1, 14]: 96.8%
 |  | 300 nM | 300 nM | Br.c1cc(Nc2nc(-c3ccc(-c4csc(Nc5ccncc5)n4)cc3)cs2)ccn1 [TCMDC-139725] | 15.17 | 15.01 | 4.53 µM | 95.5% | 101% | 98.4% | 91.8% | 92.1% | 90.8% | 87.3% | 93.4% | 96.9% | inhibition at 2 µM [1, 14]: 91.3%
 |  | 1700 nM | 5920 nM | CN(C)c1ccnc2ccc(NC(=O)Nc3ccnc4ccccc34)cc12 [TCMDC-139749] | 13.31 | 3.83 | 22.68 µM | 96.1% | 97.3% | 94.7% | 96.1% | 29.2% | 32.7% | 28.8% | 22.7% | 32.6% | 
1580 nM | 1250 nM |  |  | CC(Cc1ccc(C(=O)Nc2ccc(CC(C)NCCc3cccc(Cl)c3)cc2)cc1)NCCc1ccc(C(F)(F)F)cc1 (stereo not shown) [TCMDC-139790] | 2.39 | 3.01 | 3.76 µM |  |  |  |  |  |  |  |  |  | Average inhibition male (%) [1, 21]: 83.5%; % inhibition male (individual replicates) R1 [1, 22]: 92.2%; % inhibition male (individual replicates) R3 [1, 23]: 51.0%; % inhibition male (individual replicates) R4 [1, 24]: 92.9%; HitlevelM ([1]; 2µM): 4; Average inhibition female (%) [2, 21]: 37.4%; % inhibition female (individual replicates) R1 [2, 22]: 27.8%; % inhibition female (individual replicates) R3 [2, 23]: 24.4%; % inhibition female (individual replicates) R4 [2, 24]: 27.0%; HitlevelF ([2]; 2µM): 1
1880 nM | 3730 nM |  |  | CC(Cc1ccc(NC(=O)c2ccc(CNCCCCc3ccccc3)cc2)cc1)NCCc1cccc(Cl)c1.Cl (stereo not shown) [TCMDC-139866] | 2.02 | 1.02 | 3.81 µM |  |  |  |  |  |  |  |  |  | Average inhibition male (%) [1, 21]: 80.8%; % inhibition male (individual replicates) R1 [1, 22]: 85.9%; % inhibition male (individual replicates) R3 [1, 23]: 43.9%; % inhibition male (individual replicates) R4 [1, 24]: 97.6%; HitlevelM ([1]; 2µM): 3; Average inhibition female (%) [2, 21]: 35.2%; % inhibition female (individual replicates) R1 [2, 22]: 34.1%; % inhibition female (individual replicates) R3 [2, 23]: 6.7%; % inhibition female (individual replicates) R4 [2, 24]: 45.1%; HitlevelF ([2]; 2µM): 1

— publication PMC10584170, “Machine learning-based phenotypic imaging to characterise the targetable biology of Plasmodium falciparum male gametocytes for the development of transmission-blocking antimalarials” (PLOS Pathogens, 2023)
